≈ marks a conversion by molar mass, not a printed value. Calls of active or inactive are those of the source. The rule behind the calls is not given here.

The subject of assay [1] is Staphylococcus aureus. The assay is described as follows: Antistaphylococcal activity against erythromycin-resistant Staphylococcus aureus NRS-70 after 18 hrs by two-fold serial dilution method. It counts as functional. The note with it: NRS-70, 18 h.
Assay [2] relates to Staphylococcus aureus. The assay is described as follows: Antistaphylococcal activity against oxacillin/tetracycline-resistant Staphylococcus aureus NRS-100 after 18 hrs by two-fold serial dilution method. The note with it: NRS-100, 18 h. In kind it is functional.
Assay [3] concerns Staphylococcus aureus. Put plainly: Antistaphylococcal activity against aminoglycosides/tetracycline-resistant Staphylococcus aureus NRS-1 after 18 hrs by two-fold serial dilution method. In kind it is functional. The note with it: NRS-1, 18 h.
For assay [4], the system named is Escherichia coli. The assay is described as follows: Antibacterial activity against Escherichia coli AB1157 at 50 ug/ml after 18 hrs by two-fold serial dilution method. In kind it is functional, organism-based.
The test system of assay [5] is Staphylococcus aureus. Put plainly: Antistaphylococcal activity against Staphylococcus aureus Newman after 18 hrs by two-fold serial dilution method. It counts as functional.
In assay [6] the test system is Staphylococcus aureus. The assay is described as follows: Antistaphylococcal activity against linezolid-resistant Staphylococcus aureus NRS-271 containing phage type E-MRSA 15 after 18 hrs by two-fold serial dilution method. It counts as functional. The following applies: NRS-271, 18 h.
Assay [7] relates to Staphylococcus aureus. Put plainly: Antistaphylococcal activity against gentamicin-resistant Staphylococcus aureus NRS-108 after 18 hrs by two-fold serial dilution method. In kind it is functional. The following applies: NRS-108, 18 h.

Turning to `CC(C)c1cc2c(cc1Br)[C@@]1(C)CCC[C@@](C)(C(=O)O)[C@@H]1C/C2=N\OCCNS(=O)(=O)c1ccc(Cl)c(C(F)(F)F)c1`, the MIC in assay [1] was 0.78 to 1.56 µg/mL (≈ 1.12 to 2.25 µM); in assay [2], > 50 µg/mL; in assay [3] it was 12.5 to 25 µg/mL (≈ 18 to 36 µM); in assay [5], 0.78 to 1.56 µg/mL (≈ 1.12 to 2.25 µM); in assay [6] it was 25 to 50 µg/mL (≈ 36 to 72 µM); in assay [7], 0.78 to 1.56 µg/mL (≈ 1.12 to 2.25 µM). The outcome in assay [4] was inactive.

Consider `CN[C@H](CC(C)C)C(=O)N[C@H]1C(=O)N[C@@H](CC(N)=O)C(=O)N[C@H]2C(=O)N[C@H]3C(=O)N[C@H](C(=O)N[C@H](C(=O)O)c4cc(O)cc(O)c4-c4cc3ccc4O)[C@H](O)c3ccc(c(Cl)c3)Oc3cc2cc(c3O[C@@H]2O[C@H](CO)[C@@H](O)[C@H](O)[C@H]2O[C@H]2C[C@](C)(N)[C@H](O)[C@H](C)O2)Oc2ccc(cc2Cl)[C@H]1O` [VANCOMYCIN], for which the MIC fell in the range of 0.2 to 0.39 µg/mL (≈ 0.138 to 0.269 µM) in assay [1]; 0.39 to 0.78 µg/mL (≈ 0.269 to 0.538 µM) in assay [2]; 1.56 to 3.13 µg/mL (≈ 1.08 to 2.16 µM) in assay [3]; 0.78 to 1.56 µg/mL (≈ 0.538 to 1.08 µM) in assay [5]; 0.39 to 0.78 µg/mL (≈ 0.269 to 0.538 µM) in assay [6]; 0.39 to 0.78 µg/mL (≈ 0.269 to 0.538 µM) in assay [7].

With `CC(C)c1cc2c(cc1Br)[C@@]1(C)CCC[C@@](C)(C(=O)O)[C@@H]1C/C2=N\OCCNS(=O)(=O)c1ccc(Cl)cc1Cl`, the MIC in assay [1] was 0.39 to 0.78 µg/mL (≈ 0.59 to 1.18 µM); in assay [2], 0.78 to 1.56 µg/mL (≈ 1.18 to 2.36 µM); in assay [3] it was 0.78 to 1.56 µg/mL (≈ 1.18 to 2.36 µM); in assay [5], 0.78 to 1.56 µg/mL (≈ 1.18 to 2.36 µM); in assay [6] it was 0.78 to 1.56 µg/mL (≈ 1.18 to 2.36 µM); in assay [7] it was 0.78 to 1.56 µg/mL (≈ 1.18 to 2.36 µM). Further, the outcome in assay [4] was inactive.

For `CC(C)c1cc2c(cc1Br)[C@@]1(C)CCC[C@@](C)(C(=O)O)[C@@H]1C/C2=N\OCCNS(=O)(=O)c1ccc(F)cc1`, the MIC in assay [1], in assay [2], in assay [3], in assay [5], in assay [6] and in assay [7] was 1.56 to 3.13 µg/mL (≈ 2.56 to 5.13 µM) throughout. Also, the result in assay [4] was inactive.

As to `CC(C)c1cc2c(cc1Br)[C@@]1(C)CCC[C@@](C)(C(=O)O)[C@@H]1C/C2=N\OCCNS(=O)(=O)c1ccccc1F`, the MIC in assay [1] was 1.56 to 3.13 µg/mL (≈ 2.56 to 5.13 µM); in assay [2], 3.13 to 6.25 µg/mL (≈ 5.13 to 10.3 µM); in assay [3] it was 1.56 to 3.13 µg/mL (≈ 2.56 to 5.13 µM); in assay [5], 1.56 to 3.13 µg/mL (≈ 2.56 to 5.13 µM); in assay [6], 1.56 to 3.13 µg/mL (≈ 2.56 to 5.13 µM); in assay [7], 3.13 to 6.25 µg/mL (≈ 5.13 to 10.3 µM). Further, in assay [4], the result was inactive.

As to `CC(C)c1cc2c(cc1Br)[C@@]1(C)CCC[C@@](C)(C(=O)O)[C@@H]1C/C2=N\OCCNS(=O)(=O)c1c(Cl)cccc1Cl`, the MIC in assay [1] was in the range of 0.78 to 1.56 µg/mL (≈ 1.18 to 2.36 µM); in assay [2], 1.56 to 3.13 µg/mL (≈ 2.36 to 4.74 µM); in assay [3] it was 1.56 to 3.13 µg/mL (≈ 2.36 to 4.74 µM); in assay [5], 1.56 to 3.13 µg/mL (≈ 2.36 to 4.74 µM); in assay [6], 1.56 to 3.13 µg/mL (≈ 2.36 to 4.74 µM); in assay [7] it was 1.56 to 3.13 µg/mL (≈ 2.36 to 4.74 µM). Moreover, the outcome in assay [4] was inactive.

In the case of `CC(C)c1cc2c(cc1Br)[C@@]1(C)CCC[C@@](C)(C(=O)O)[C@@H]1C/C2=N\OCCNS(=O)(=O)c1ccccc1C(F)(F)F`, the result in assay [4] was inactive. Moreover, the MIC in assay [5] was > 50 µg/mL.

With `CC(C)c1cc2c(cc1Br)[C@@]1(C)CCC[C@@](C)(C(=O)O)[C@@H]1C/C2=N\OCCNS(=O)(=O)c1ccc(Cl)nc1`, the outcome in assay [4] was inactive. Further, the MIC in assay [5] lay in the range of 3.13 to 6.25 µg/mL (≈ 4.99 to 9.97 µM).

For the compound `CC(C)c1cc2c(cc1Br)[C@@]1(C)CCC[C@@](C)(C(=O)O)[C@@H]1C/C2=N\OCCN`, in assay [4], the outcome was inactive. Besides, the MIC in assay [5] was > 50 µg/mL.

Turning to `CN(C)[C@@H]1C(O)=C(C(N)=O)C(=O)[C@@]2(O)C(O)=C3C(=O)c4c(O)cccc4[C@@](C)(O)[C@H]3C[C@@H]12` [TETRACYCLINE], the MIC was < 0.2 µg/mL in assay [1]; < 0.2 µg/mL in assay [2]; > 25 µg/mL in assay [3]; < 0.2 µg/mL in assay [5]; < 0.2 µg/mL in assay [6]; < 0.2 µg/mL in assay [7].

As for `CC(C)c1cc2c(cc1Br)[C@@]1(C)CCC[C@@](C)(C(=O)O)[C@@H]1C/C2=N\OCCNS(=O)(=O)c1cc(C(F)(F)F)cc(C(F)(F)F)c1`, the MIC in assay [1] is 0.78 to 1.56 µg/mL (≈ 1.07 to 2.14 µM); in assay [2], > 50 µg/mL; in assay [3], > 50 µg/mL; in assay [5] it was 0.78 to 1.56 µg/mL (≈ 1.07 to 2.14 µM); in assay [6] it was > 50 µg/mL; in assay [7], 0.78 to 1.56 µg/mL (≈ 1.07 to 2.14 µM). Further, the outcome in assay [4] was inactive.

With `CCCS(=O)(=O)NCCO/N=C1\C[C@H]2[C@](C)(C(=O)O)CCC[C@]2(C)c2cc(Br)c(C(C)C)cc21`, the outcome in assay [4] was inactive. This compound also came in with an MIC in assay [5] of 12.5 to 25 µg/mL (≈ 22.4 to 44.8 µM).

Consider `CCS(=O)(=O)NCCO/N=C1\C[C@H]2[C@](C)(C(=O)O)CCC[C@]2(C)c2cc(Br)c(C(C)C)cc21`, for which the outcome in assay [4] was inactive. In addition, the MIC in assay [5] was in the range of 12.5 to 25 µg/mL (≈ 23 to 46 µM).

In the case of `COc1ccc(S(=O)(=O)NCCO/N=C2\C[C@H]3[C@](C)(C(=O)O)CCC[C@]3(C)c3cc(Br)c(C(C)C)cc32)cc1`, the result in assay [4] was inactive. Moreover, the MIC in assay [5] fell in the range of 3.13 to 6.25 µg/mL (≈ 5.04 to 10.1 µM).

Regarding `CC(C)c1cc2c(cc1Br)[C@@]1(C)CCC[C@@](C)(C(=O)O)[C@@H]1C/C2=N\OCCNS(=O)(=O)c1cccc2cccnc12`, the MIC in assay [1] is 1.56 to 3.13 µg/mL (≈ 2.43 to 4.87 µM); in assay [2] it was 3.13 to 6.25 µg/mL (≈ 4.87 to 9.73 µM); in assay [3] it was 1.56 to 3.13 µg/mL (≈ 2.43 to 4.87 µM); in assay [5], 1.56 to 3.13 µg/mL (≈ 2.43 to 4.87 µM); in assay [6], 3.13 to 6.25 µg/mL (≈ 4.87 to 9.73 µM); in assay [7], 3.13 to 6.25 µg/mL (≈ 4.87 to 9.73 µM). The outcome in assay [4] was inactive.

Turning to `CC(C)c1cc2c(cc1Br)[C@@]1(C)CCC[C@@](C)(C(=O)O)[C@@H]1C/C2=N\OCCNS(=O)(=O)c1ccc(C(C)(C)C)cc1`, the outcome in assay [4] was inactive. In assay [5], this compound showed an MIC of 3.13 to 6.25 µg/mL (≈ 4.83 to 9.65 µM).

On to `CC(C)c1cc2c(cc1Br)[C@@]1(C)CCC[C@@](C)(C(=O)O)[C@@H]1C/C2=N\OCCNS(=O)(=O)c1cc(F)c(F)c(F)c1`, for which the outcome in assay [4] was inactive. Moreover, the MIC in assay [5] is > 50 µg/mL.

`CC(C)c1cc2c(cc1Br)[C@@]1(C)CCC[C@@](C)(C(=O)O)[C@@H]1C/C2=N\OCCNS(=O)(=O)c1cccc(Cl)c1`: the MIC in assay [1] lay within 0.78 to 1.56 µg/mL (≈ 1.25 to 2.49 µM); in assay [2], 1.56 to 3.13 µg/mL (≈ 2.49 to 5 µM); in assay [3] it was 1.56 to 3.13 µg/mL (≈ 2.49 to 5 µM); in assay [5], 0.78 to 1.56 µg/mL (≈ 1.25 to 2.49 µM); in assay [6], 1.56 to 3.13 µg/mL (≈ 2.49 to 5 µM); in assay [7] it was 1.56 to 3.13 µg/mL (≈ 2.49 to 5 µM). Besides, in assay [4], the outcome was inactive.

For the compound `CC(C)c1cc2c(cc1Br)[C@@]1(C)CCC[C@@](C)(C(=O)O)[C@@H]1C/C2=N\OCCNS(=O)(=O)c1cccs1`, in assay [4], the outcome was inactive.

With `CC(C)c1cc2c(cc1Br)[C@@]1(C)CCC[C@@](C)(C(=O)O)[C@@H]1C/C2=N\OCCNS(=O)(=O)C1CC1`, the outcome in assay [4] was inactive. In assay [5], the MIC was 6.25 to 12.5 µg/mL (≈ 11.3 to 22.5 µM).

For the compound `CC(C)c1ccc2c(c1)CC[C@H]1[C@](C)(C(=O)O)CCC[C@]21C` [DEHYDROABIETIC ACID], the MIC in assay [1] was 12.5 to 25 µg/mL (≈ 41.6 to 83.2 µM); in assay [2], 12.5 to 25 µg/mL (≈ 41.6 to 83.2 µM); in assay [3] it was 12.5 to 25 µg/mL (≈ 41.6 to 83.2 µM); in assay [5], 12.5 to 20 µg/mL (≈ 41.6 to 66.6 µM); in assay [6], 12.5 to 25 µg/mL (≈ 41.6 to 83.2 µM); in assay [7] it was 12.5 to 25 µg/mL (≈ 41.6 to 83.2 µM).

Turning to `CC(C)c1cc2c(cc1Br)[C@@]1(C)CCC[C@@](C)(C(=O)O)[C@@H]1C/C2=N\OCCNS(=O)(=O)c1c(F)cccc1F`, the outcome in assay [4] was inactive. Moreover, the MIC in assay [5] was > 50 µg/mL.

As for `CC(C)c1cc2c(cc1Br)[C@@]1(C)CCC[C@@](C)(C(=O)O)[C@@H]1C/C2=N\OCCNS(=O)(=O)c1cccnc1`, the result in assay [4] was inactive. For the same compound, the MIC in assay [5] fell in the range of 3.13 to 6.25 µg/mL (≈ 5.28 to 10.5 µM).

The record behind these values is ChEMBL document CHEMBL4219219, “The synthesis and antistaphylococcal activity of N-sulfonaminoethyloxime derivatives of dehydroabietic acid” (Bioorg Med Chem Lett, 2018).
